Reference: PubChem BioAssay AID248 (DTP/NCI, 2004)
Several values for one entry are separate records, joined by “and”; a condition that tells them apart may be missing. Equal values may be shown once. Toxic doses and inconclusive results are not listed.

System: L1210 leukemia ip in BDF1 mice, survival T/C
Experiment: NCI In Vivo Anticancer Drug Screen. Data for tumor model L1210 Leukemia (intraperitoneal) in B6D2F1 (BDF1) mice
Settings: higher = longer survival
Outline: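 In this screen, tumor-bearing mice given compound are compared to those given vehicle, and their survival values are reported as a treated-to-control quotient.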

N[C@H](C(=O)O)[C@@H]1CC(Cl)=NO1
T/C (endpoint: mean survival time, dose: 0.1 mg/kg/injection, schedule: Q03HX024 (ip), vehicle: saline): 120 % of control | T/C (endpoint: mean survival time, dose: 0.39 mg/kg/injection, schedule: Q01DX009 (sc), vehicle: saline): 119 % of control and 121 % of control | T/C (endpoint: mean survival time, dose: 0.39 mg/kg/injection, schedule: Q03HX024 (ip), vehicle: saline): 194 % of control | T/C (endpoint: mean survival time, dose: 0.78 mg/kg/injection, schedule: Q01DX009 (oral), vehicle: saline): 123 % of control | T/C (endpoint: mean survival time, dose: 1.0 mg/kg/injection, schedule: Q01DX009 (ip), vehicle: saline): 123 % of control and 124 % of control | T/C (endpoint: mean survival time, dose: 1.56 mg/kg/injection, schedule: Q01DX009 (oral), vehicle: saline): 151 % of control | T/C (endpoint: mean survival time, dose: 3.12 mg/kg/injection, schedule: Q01DX001 (ip), vehicle: saline): 107 % of control | T/C (endpoint: mean survival time, dose: 3.12 mg/kg/injection, schedule: Q04DX003 (ip), vehicle: saline): 107 % of control | T/C (endpoint: mean survival time, dose: 4.0 mg/kg/injection, schedule: Q01DX009 (ip), vehicle: saline): 152 % of control | T/C (endpoint: mean survival time, dose: 6.2 mg/kg/injection, schedule: Q04DX003 (ip), vehicle: saline): 115 % of control and 116 % of control | T/C (endpoint: mean survival time, dose: 6.25 mg/kg/injection, schedule: Q01DX001 (ip), vehicle: saline): 112 % of control | T/C (endpoint: mean survival time, dose: 6.25 mg/kg/injection, schedule: Q01DX009 (oral), vehicle: saline): 107 % of control and 110 % of control | T/C (endpoint: mean survival time, dose: 6.25 mg/kg/injection, schedule: Q01DX009 (sc), vehicle: saline): 105 % of control | T/C (endpoint: mean survival time, dose: 12.5 mg/kg/injection, schedule: Q01DX001 (ip), vehicle: saline): 119 % of control | T/C (endpoint: mean survival time, dose: 12.5 mg/kg/injection, schedule: Q01DX009 (sc), vehicle: saline): 101 % of control | T/C (endpoint: mean survival time, dose: 12.5 mg/kg/injection, schedule: Q04DX003 (ip), vehicle: saline): 109 % of control and 110 % of control | T/C (endpoint: mean survival time, dose: 16.0 mg/kg/injection, schedule: Q01DX009 (ip), vehicle: saline): 102 % of control | T/C (endpoint: mean survival time, dose: 25.0 mg/kg/injection, schedule: Q01DX009 (sc), vehicle: saline): 94 % of control and 95 % of control | T/C (endpoint: mean survival time, dose: 25.0 mg/kg/injection, schedule: Q03HX008 (ip), vehicle: saline): 153 % of control | T/C (endpoint: mean survival time, dose: 25.0 mg/kg/injection, schedule: Q04DX003 (ip), vehicle: saline): 116 % of control and 120 % of control | T/C (endpoint: mean survival time, dose: 32.0 mg/kg/injection, schedule: Q01DX009 (ip), vehicle: saline): 104 % of control and 115 % of control | T/C (endpoint: mean survival time, dose: 50.0 mg/kg/injection, schedule: Q04DX003 (ip), vehicle: saline): 120 % of control and 123 % of control | T/C (endpoint: median survival time, dose: 0.25 mg/kg/injection, schedule: Q03HX024 (ip), vehicle: saline): 117 % of control | T/C (endpoint: median survival time, dose: 0.39 mg/kg/injection, schedule: Q03HX024 (ip), vehicle: saline): 175 % of control | T/C (endpoint: median survival time, dose: 0.5 mg/kg/injection, schedule: Q03HX016 (ip), vehicle: saline): 124 % of control | T/C (endpoint: median survival time, dose: 0.78 mg/kg/injection, schedule: Q01DX009 (ip), vehicle: saline): 153 % of control | T/C (endpoint: median survival time, dose: 0.78 mg/kg/injection, schedule: Q03HX016 (ip), vehicle: saline): 150 % of control | T/C (endpoint: median survival time, dose: 0.78 mg/kg/injection, schedule: Q03HX024 (ip), vehicle: saline): 191 % of control | T/C (endpoint: median survival time, dose: 1.0 mg/kg/injection, schedule: Q01DX009 (sc), vehicle: saline): 122 % of control | T/C (endpoint: median survival time, dose: 1.0 mg/kg/injection, schedule: Q03HX008 (ip), vehicle: saline): 120 % of control | T/C (endpoint: median survival time, dose: 1.0 mg/kg/injection, schedule: Q03HX024 (ip), vehicle: saline): 159 % of control | T/C (endpoint: median survival time, dose: 1.56 mg/kg/injection, schedule: Q03HX016 (ip), vehicle: saline): 159 % of control | T/C (endpoint: median survival time, dose: 2.0 mg/kg/injection, schedule: Q03HX016 (ip), vehicle: saline): 150 % of control | T/C (endpoint: median survival time, dose: 2.0 mg/kg/injection, schedule: Q03HX024 (ip), vehicle: saline): 181 % of control | T/C (endpoint: median survival time, dose: 2.0 mg/kg/injection, schedule: Q04DX003 (ip), vehicle: saline): 106 % of control | T/C (endpoint: median survival time, dose: 3.12 mg/kg/injection, schedule: Q01DX009 (ip), vehicle: saline): 94 % of control | T/C (endpoint: median survival time, dose: 3.12 mg/kg/injection, schedule: Q03HX008 (ip), vehicle: saline): 154 % of control | T/C (endpoint: median survival time, dose: 3.12 mg/kg/injection, schedule: Q03HX016 (ip), vehicle: saline): 166 % of control | T/C (endpoint: median survival time, dose: 4.0 mg/kg/injection, schedule: Q01DX009 (ip), vehicle: saline): 158 % of control | T/C (endpoint: median survival time, dose: 4.0 mg/kg/injection, schedule: Q03HX016 (ip), vehicle: saline): 153 % of control | T/C (endpoint: median survival time, dose: 4.0 mg/kg/injection, schedule: Q04DX003 (ip), vehicle: saline): 110 % of control | T/C (endpoint: median survival time, dose: 4.0 mg/kg/injection, schedule: Q08DX002 (ip), vehicle: saline): 104 % of control | T/C (endpoint: median survival time, dose: 6.25 mg/kg/injection, schedule: Q03HX016 (ip), vehicle: saline): 182 % of control | T/C (endpoint: median survival time, dose: 8.0 mg/kg/injection, schedule: Q01DX001 (ip), vehicle: saline): 100 % of control | T/C (endpoint: median survival time, dose: 8.0 mg/kg/injection, schedule: Q01DX001 (sc), vehicle: saline): 114 % of control | T/C (endpoint: median survival time, dose: 8.0 mg/kg/injection, schedule: Q01DX009 (ip), vehicle: saline): 165 % of control | T/C (endpoint: median survival time, dose: 8.0 mg/kg/injection, schedule: Q01DX009 (sc), vehicle: saline): 162 % of control | T/C (endpoint: median survival time, dose: 8.0 mg/kg/injection, schedule: Q03HX016 (ip), vehicle: saline): 162 % of control | T/C (endpoint: median survival time, dose: 8.0 mg/kg/injection, schedule: Q08DX002 (ip), vehicle: saline): 114 % of control | T/C (endpoint: median survival time, dose: 12.5 mg/kg/injection, schedule: Q01DX001 (ip), vehicle: saline): 115 % of control | T/C (endpoint: median survival time, dose: 12.5 mg/kg/injection, schedule: Q03HX016 (ip), vehicle: saline): 171 % of control | T/C (endpoint: median survival time, dose: 12.5 mg/kg/injection, schedule: Q03HX024 (ip), vehicle: saline): 93 % of control | T/C (endpoint: median survival time, dose: 12.5 mg/kg/injection, schedule: Q04DX003 (ip), vehicle: saline): 153 % of control | T/C (endpoint: median survival time, dose: 12.5 mg/kg/injection, schedule: Q08DX002 (ip), vehicle: saline): 151 % of control | T/C (endpoint: median survival time, dose: 16.0 mg/kg/injection, schedule: Q01DX001 (ip), vehicle: saline): 99 % of control | T/C (endpoint: median survival time, dose: 16.0 mg/kg/injection, schedule: Q01DX001 (sc), vehicle: saline): 105 % of control | T/C (endpoint: median survival time, dose: 16.0 mg/kg/injection, schedule: Q01DX009 (oral), vehicle: saline): 94 % of control | T/C (endpoint: median survival time, dose: 16.0 mg/kg/injection, schedule: Q01DX009 (sc), vehicle: saline): 109 % of control | T/C (endpoint: median survival time, dose: 16.0 mg/kg/injection, schedule: Q03HX016 (ip), vehicle: saline): 155 % of control | T/C (endpoint: median survival time, dose: 16.0 mg/kg/injection, schedule: Q04DX003 (ip), vehicle: saline): 120 % of control | T/C (endpoint: median survival time, dose: 16.0 mg/kg/injection, schedule: Q08DX002 (ip), vehicle: saline): 106 % of control | T/C (endpoint: median survival time, dose: 25.0 mg/kg/injection, schedule: Q01DX001 (ip), vehicle: saline): 108 % of control | T/C (endpoint: median survival time, dose: 25.0 mg/kg/injection, schedule: Q04DX003 (ip), vehicle: saline): 154 % of control | T/C (endpoint: median survival time, dose: 32.0 mg/kg/injection, schedule: Q01DX001 (ip), vehicle: saline): 113 % of control | T/C (endpoint: median survival time, dose: 32.0 mg/kg/injection, schedule: Q01DX001 (sc), vehicle: saline): 107 % of control | T/C (endpoint: median survival time, dose: 32.0 mg/kg/injection, schedule: Q01DX009 (ip), vehicle: saline): 103 % of control | T/C (endpoint: median survival time, dose: 32.0 mg/kg/injection, schedule: Q08DX002 (ip), vehicle: saline): 114 % of control | T/C (endpoint: median survival time, dose: 50.0 mg/kg/injection, schedule: Q01DX001 (ip), vehicle: saline): 122 % of control | T/C (endpoint: median survival time, dose: 50.0 mg/kg/injection, schedule: Q04DX003 (ip), vehicle: saline): 188 % of control | T/C (endpoint: median survival time, dose: 50.0 mg/kg/injection, schedule: Q08DX002 (ip), vehicle: saline): 151 % of control | T/C (endpoint: median survival time, dose: 64.0 mg/kg/injection, schedule: Q01DX001 (ip), vehicle: saline): 113 % of control | T/C (endpoint: median survival time, dose: 64.0 mg/kg/injection, schedule: Q01DX001 (oral), vehicle: saline): 112 % of control and 114 % of control | T/C (endpoint: median survival time, dose: 64.0 mg/kg/injection, schedule: Q01DX001 (sc), vehicle: saline): 116 % of control | T/C (endpoint: median survival time, dose: 64.0 mg/kg/injection, schedule: Q08DX002 (ip), vehicle: saline): 109 % of control | T/C (endpoint: median survival time, dose: 128.0 mg/kg/injection, schedule: Q01DX001 (ip), vehicle: saline): 116 % of control | T/C (endpoint: median survival time, dose: 128.0 mg/kg/injection, schedule: Q01DX001 (oral), vehicle: saline): 119 % of control | T/C (endpoint: median survival time, dose: 128.0 mg/kg/injection, schedule: Q01DX001 (sc), vehicle: saline): 115 % of control | T/C (endpoint: median survival time, dose: 128.0 mg/kg/injection, schedule: Q08DX002 (ip), vehicle: saline): 119 % of control | T/C (endpoint: median survival time, dose: 256.0 mg/kg/injection, schedule: Q01DX001 (ip), vehicle: saline): 110 % of control | T/C (endpoint: median survival time, dose: 256.0 mg/kg/injection, schedule: Q01DX001 (oral), vehicle: saline): 116 % of control | T/C (endpoint: median survival time, dose: 256.0 mg/kg/injection, schedule: Q01DX001 (sc), vehicle: saline): 120 % of control | T/C (endpoint: median survival time, dose: 400.0 mg/kg/injection, schedule: Q01DX001 (ip), vehicle: saline): 93 % of control | T/C (endpoint: median survival time, dose: 400.0 mg/kg/injection, schedule: Q08DX002 (ip), vehicle: saline): 116 % of control

CC1=CC(=O)C(c2ccccc2)CC1 (stereo unspecified) (tested in a mixture with another compound)
T/C (endpoint: mean survival time, dose: 50.0 mg/kg/injection, schedule: Q01DX009 (ip), vehicle: saline with Tween-80): 96 % of control | T/C (endpoint: mean survival time, dose: 100.0 mg/kg/injection, schedule: Q01DX009 (ip), vehicle: saline with Tween-80): 96 % of control | T/C (endpoint: mean survival time, dose: 200.0 mg/kg/injection, schedule: Q01DX009 (ip), vehicle: saline with Tween-80): 96 % of control
